From PMC10885153, “Membrane Permeability in a Large Macrocyclic Peptide Driven by a Saddle-Shaped Conformation” (Journal of the American Chemical Society, 2024)
Positions of bridges follow the written chain, without caps; N, C: chain ends. Non-standard residues stand in square brackets, D forms with d. Residues, ends and D or L forms follow the SMILES beside them. NMeC = CN[C@@H](CS)C(=O)O; NMeA = CN[C@@H](C)C(=O)O; dAbu = CC[C@@H](N)C(=O)O; dNMeA = CN[C@H](C)C(=O)O; Abu = CC[C@H](N)C(=O)O; Nleu = CC(C)CNCC(=O)O; NEtG = CCNCC(=O)O

assay: in vitro; details: PAMPA, pH 7.4, PAMPA Pe_avg
Method: Passive permeabilities of the 36 compounds were measured in multiplex as mixtures of six compounds each using the parallel artificial membrane permeability assay (PAMPA).[44]−[46]
Protocol is identical for both mixture and pure compound analysis.
Two of the following: Carbamazepine (CBZ), propranolol (Prop), and 1NMe35 were
included as internal standards and prepared as DMSO stocks at a concentration of 2 000 µM.
assay was carried out with a 96-well donor plate with 0.45 μ hydrophobic Immobilon-P membrane supports
(Millipore MAIPNTR10) and a 96-well Teflon acceptor plate (Millipore MSSACCEPTOR).
protocol then proceeded as follows:
Donor well solutions were prepared to a volume of 1 000 µL with the analytes as a solution in 1X
PBS pH 7.4 and 5% DMSO. To a 3 mL Eppendorf tube was added 950 µL of 1X PBS pH 7.4, 40
The solutions were vortexed and set aside.
Analyte – 10 µM per compound
A 1% solution of soy lecithin in dodecane was freshly prepared in a 3 mL Eppendorf tube and
sonicated (5 min) to ensure full dissolution of the lecithin. The donor membrane plate was turned
upside down and bottom of the membranes exposed. 5 µL of the 1% soy lecithin solution in
dodecane was then placed on the bottom of the membrane, allowing the drop to spread across the
full area of the membrane. Any membranes with visible damage were not used in the assay.
membranes were allowed to equilibrate for 5 min before loading.
Each well within the Teflon block acceptor plate that was to be used in the assay was then loaded
with 300 µL of 1X PBS pH 7.4 and 5% DMSO.
Working without break, 150 µL of each donor well solution was transferred from the to the 96-well
donor plate. Each mixture of interest was r un in quadruplicate, using a new well for each replicate.
As soon as the 96-well donor plate was finished being loaded, it was gently placed into the 96-well
Teflon acceptor plate, taking care not to trap any air bubbles beneath the membrane.
The donor/acceptor plates were covered gently with the lid to minimize evaporation and transferred
gently as a system to a sealed chamber and left to sit overnight at room temperature. The chamber
was kept from drying by placing a wet paper towel within to prevent evaporation.
After ~19-20 hours the donor plate was removed from the acceptor plate.
50 µL of each well (donor and acceptor) were transferred to a 96 -well plate and diluted with 50 µL
of methanol prior to heat sealing and quantification by UPLC -MS.

Row | Papp at 10 µM [×10⁻⁶ cm/s] | Structure (SMILES)
1 | 0.16 | CCOC(=O)[C@@H]1CSCC(=O)N[C@H](CC)C(=O)N(C)[C@@H](C)C(=O)N[C@H](CC(C)C)C(=O)N2CCC[C@@H]2C(=O)N(CC)CC(=O)N[C@H](CC(C)C)C(=O)N(C)[C@H](C)C(=O)N[C@@H](CC(C)C)C(=O)N1C [JF206_ADD_DDDD_Ethyl] ({CH2CO}-[dAbu][NMeA][dL][dP][NEtG][dL][dNMeA]L[NMeC]-OEt; thioether N-9)
2 | 0.162 | CCOC(=O)[C@@H]1CSCC(=O)N[C@H](CC)C(=O)N(C)[C@@H](C)C(=O)N[C@H](CC(C)C)C(=O)N2CCC[C@@H]2C(=O)N(CC)CC(=O)N[C@H](CC(C)C)C(=O)N(C)[C@@H](C)C(=O)N[C@@H](CC(C)C)C(=O)N1C [JF206_ADD_DDDL_Ethyl] ({CH2CO}-[dAbu][NMeA][dL][dP][NEtG][dL][NMeA]L[NMeC]-OEt; thioether N-9)
3 | 0.005 | CCOC(=O)[C@@H]1CSCC(=O)N[C@H](CC)C(=O)N(C)[C@@H](C)C(=O)N[C@H](CC(C)C)C(=O)N2CCC[C@@H]2C(=O)N(CC)CC(=O)N[C@@H](CC(C)C)C(=O)N(C)[C@H](C)C(=O)N[C@@H](CC(C)C)C(=O)N1C [JF206_ADD_DDLD_Ethyl] ({CH2CO}-[dAbu][NMeA][dL][dP][NEtG]L[dNMeA]L[NMeC]-OEt; thioether N-9)
4 | 0.125 | CCOC(=O)[C@@H]1CSCC(=O)N[C@H](CC)C(=O)N(C)[C@@H](C)C(=O)N[C@H](CC(C)C)C(=O)N2CCC[C@@H]2C(=O)N(CC(C)C)CC(=O)N[C@@H](CC(C)C)C(=O)N(C)[C@H](C)C(=O)N[C@@H](CC(C)C)C(=O)N1C [JF206_ADD_DDLD_Isobutyl] ({CH2CO}-[dAbu][NMeA][dL][dP][Nleu]L[dNMeA]L[NMeC]-OEt; thioether N-9)
5 | 0.118 | CCOC(=O)[C@@H]1CSCC(=O)N[C@H](CC)C(=O)N(C)[C@@H](C)C(=O)N[C@@H](CC(C)C)C(=O)N2CCC[C@@H]2C(=O)N(CC(C)C)CC(=O)N[C@H](CC(C)C)C(=O)N(C)[C@H](C)C(=O)N[C@@H](CC(C)C)C(=O)N1C [JF206_ADD_DLDD_Isobutyl] ({CH2CO}-[dAbu][NMeA]L[dP][Nleu][dL][dNMeA]L[NMeC]-OEt; thioether N-9)
6 | 0.003 | CCOC(=O)[C@@H]1CSCC(=O)N[C@H](CC)C(=O)N(C)[C@@H](C)C(=O)N[C@@H](CC(C)C)C(=O)N2CCC[C@@H]2C(=O)N(CC)CC(=O)N[C@H](CC(C)C)C(=O)N(C)[C@@H](C)C(=O)N[C@@H](CC(C)C)C(=O)N1C [JF206_ADD_DLDL_Ethyl] ({CH2CO}-[dAbu][NMeA]L[dP][NEtG][dL][NMeA]L[NMeC]-OEt; thioether N-9)
7 | 0.173 | CCOC(=O)[C@@H]1CSCC(=O)N[C@H](CC)C(=O)N(C)[C@@H](C)C(=O)N[C@@H](CC(C)C)C(=O)N2CCC[C@@H]2C(=O)N(CC(C)C)CC(=O)N[C@H](CC(C)C)C(=O)N(C)[C@@H](C)C(=O)N[C@@H](CC(C)C)C(=O)N1C [JF206_ADD_DLDL_Isobutyl] ({CH2CO}-[dAbu][NMeA]L[dP][Nleu][dL][NMeA]L[NMeC]-OEt; thioether N-9)
8 | 0.174 | CCOC(=O)[C@@H]1CSCC(=O)N[C@H](CC)C(=O)N(C)[C@@H](C)C(=O)N[C@@H](CC(C)C)C(=O)N2CCC[C@@H]2C(=O)N(CC)CC(=O)N[C@@H](CC(C)C)C(=O)N(C)[C@H](C)C(=O)N[C@@H](CC(C)C)C(=O)N1C [JF206_ADD_DLLD_Ethyl] ({CH2CO}-[dAbu][NMeA]L[dP][NEtG]L[dNMeA]L[NMeC]-OEt; thioether N-9)
9 | 0.561 | CCOC(=O)[C@@H]1CSCC(=O)N[C@H](CC)C(=O)N(C)[C@@H](C)C(=O)N[C@@H](CC(C)C)C(=O)N2CCC[C@@H]2C(=O)N(CC)CC(=O)N[C@@H](CC(C)C)C(=O)N(C)[C@@H](C)C(=O)N[C@@H](CC(C)C)C(=O)N1C [JF206_ADD_DLLL_Ethyl] ({CH2CO}-[dAbu][NMeA]L[dP][NEtG]L[NMeA]L[NMeC]-OEt; thioether N-9)
10 | 0.688 | CCOC(=O)[C@@H]1CSCC(=O)N[C@H](CC)C(=O)N(C)[C@@H](C)C(=O)N[C@@H](CC(C)C)C(=O)N2CCC[C@@H]2C(=O)N(CC(C)C)CC(=O)N[C@@H](CC(C)C)C(=O)N(C)[C@@H](C)C(=O)N[C@@H](CC(C)C)C(=O)N1C [JF206_ADD_DLLL_Isobutyl] ({CH2CO}-[dAbu][NMeA]L[dP][Nleu]L[NMeA]L[NMeC]-OEt; thioether N-9)
11 | 0.177 | CCOC(=O)[C@@H]1CSCC(=O)N[C@@H](CC)C(=O)N(C)[C@@H](C)C(=O)N[C@H](CC(C)C)C(=O)N2CCC[C@@H]2C(=O)N(CC)CC(=O)N[C@H](CC(C)C)C(=O)N(C)[C@H](C)C(=O)N[C@@H](CC(C)C)C(=O)N1C [JF206_ADL_LDDD_Ethyl] ({CH2CO}-[Abu][NMeA][dL][dP][NEtG][dL][dNMeA]L[NMeC]-OEt; thioether N-9)
12 | 0.315 | CCOC(=O)[C@@H]1CSCC(=O)N[C@@H](CC)C(=O)N(C)[C@@H](C)C(=O)N[C@H](CC(C)C)C(=O)N2CCC[C@@H]2C(=O)N(CC)CC(=O)N[C@H](CC(C)C)C(=O)N(C)[C@@H](C)C(=O)N[C@@H](CC(C)C)C(=O)N1C [JF206_ADL_LDDL_Ethyl] ({CH2CO}-[Abu][NMeA][dL][dP][NEtG][dL][NMeA]L[NMeC]-OEt; thioether N-9)
13 | 0.013 | CCOC(=O)[C@@H]1CSCC(=O)N[C@@H](CC)C(=O)N(C)[C@@H](C)C(=O)N[C@H](CC(C)C)C(=O)N2CCC[C@@H]2C(=O)N(CC)CC(=O)N[C@@H](CC(C)C)C(=O)N(C)[C@@H](C)C(=O)N[C@@H](CC(C)C)C(=O)N1C [JF206_ADL_LDLL_Ethyl] ({CH2CO}-[Abu][NMeA][dL][dP][NEtG]L[NMeA]L[NMeC]-OEt; thioether N-9)
14 | 0.018 | CCOC(=O)[C@@H]1CSCC(=O)N[C@@H](CC)C(=O)N(C)[C@@H](C)C(=O)N[C@@H](CC(C)C)C(=O)N2CCC[C@@H]2C(=O)N(CC)CC(=O)N[C@H](CC(C)C)C(=O)N(C)[C@H](C)C(=O)N[C@@H](CC(C)C)C(=O)N1C [JF206_ADL_LLDD_Ethyl] ({CH2CO}-[Abu][NMeA]L[dP][NEtG][dL][dNMeA]L[NMeC]-OEt; thioether N-9)
15 | 0.286 | CCOC(=O)[C@@H]1CSCC(=O)N[C@@H](CC)C(=O)N(C)[C@@H](C)C(=O)N[C@@H](CC(C)C)C(=O)N2CCC[C@@H]2C(=O)N(CC(C)C)CC(=O)N[C@H](CC(C)C)C(=O)N(C)[C@H](C)C(=O)N[C@@H](CC(C)C)C(=O)N1C [JF206_ADL_LLDD_Isobutyl] ({CH2CO}-[Abu][NMeA]L[dP][Nleu][dL][dNMeA]L[NMeC]-OEt; thioether N-9)
16 | 0.011 | CCOC(=O)[C@@H]1CSCC(=O)N[C@@H](CC)C(=O)N(C)[C@@H](C)C(=O)N[C@@H](CC(C)C)C(=O)N2CCC[C@@H]2C(=O)N(CC)CC(=O)N[C@H](CC(C)C)C(=O)N(C)[C@@H](C)C(=O)N[C@@H](CC(C)C)C(=O)N1C [JF206_ADL_LLDL_Ethyl] ({CH2CO}-[Abu][NMeA]L[dP][NEtG][dL][NMeA]L[NMeC]-OEt; thioether N-9)
17 | 0.229 | CCOC(=O)[C@@H]1CSCC(=O)N[C@@H](CC)C(=O)N(C)[C@@H](C)C(=O)N[C@@H](CC(C)C)C(=O)N2CCC[C@@H]2C(=O)N(CC(C)C)CC(=O)N[C@H](CC(C)C)C(=O)N(C)[C@@H](C)C(=O)N[C@@H](CC(C)C)C(=O)N1C [JF206_ADL_LLDL_Isobutyl] ({CH2CO}-[Abu][NMeA]L[dP][Nleu][dL][NMeA]L[NMeC]-OEt; thioether N-9)
18 | 0.326 | CCOC(=O)[C@@H]1CSCC(=O)N[C@@H](CC)C(=O)N(C)[C@@H](C)C(=O)N[C@@H](CC(C)C)C(=O)N2CCC[C@@H]2C(=O)N(CC)CC(=O)N[C@@H](CC(C)C)C(=O)N(C)[C@H](C)C(=O)N[C@@H](CC(C)C)C(=O)N1C [JF206_ADL_LLLD_Ethyl] ({CH2CO}-[Abu][NMeA]L[dP][NEtG]L[dNMeA]L[NMeC]-OEt; thioether N-9)
19 | 0.194 | CCOC(=O)[C@@H]1CSCC(=O)N[C@H](CC)C(=O)N(C)[C@@H](C)C(=O)N[C@H](CC(C)C)C(=O)N2CCC[C@H]2C(=O)N(CC)CC(=O)N[C@H](CC(C)C)C(=O)N(C)[C@H](C)C(=O)N[C@@H](CC(C)C)C(=O)N1C [JF206_ALD_DDDD_Ethyl] ({CH2CO}-[dAbu][NMeA][dL]P[NEtG][dL][dNMeA]L[NMeC]-OEt; thioether N-9)
20 | 0.18 | CCOC(=O)[C@@H]1CSCC(=O)N[C@H](CC)C(=O)N(C)[C@@H](C)C(=O)N[C@H](CC(C)C)C(=O)N2CCC[C@H]2C(=O)N(CC)CC(=O)N[C@H](CC(C)C)C(=O)N(C)[C@@H](C)C(=O)N[C@@H](CC(C)C)C(=O)N1C [JF206_ALD_DDDL_Ethyl] ({CH2CO}-[dAbu][NMeA][dL]P[NEtG][dL][NMeA]L[NMeC]-OEt; thioether N-9)
21 | 0.556 | CCOC(=O)[C@@H]1CSCC(=O)N[C@H](CC)C(=O)N(C)[C@@H](C)C(=O)N[C@H](CC(C)C)C(=O)N2CCC[C@H]2C(=O)N(CC(C)C)CC(=O)N[C@H](CC(C)C)C(=O)N(C)[C@@H](C)C(=O)N[C@@H](CC(C)C)C(=O)N1C [JF206_ALD_DDDL_Isobutyl] ({CH2CO}-[dAbu][NMeA][dL]P[Nleu][dL][NMeA]L[NMeC]-OEt; thioether N-9)
22 | 0.007 | CCOC(=O)[C@@H]1CSCC(=O)N[C@H](CC)C(=O)N(C)[C@@H](C)C(=O)N[C@H](CC(C)C)C(=O)N2CCC[C@H]2C(=O)N(CC)CC(=O)N[C@@H](CC(C)C)C(=O)N(C)[C@H](C)C(=O)N[C@@H](CC(C)C)C(=O)N1C [JF206_ALD_DDLD_Ethyl] ({CH2CO}-[dAbu][NMeA][dL]P[NEtG]L[dNMeA]L[NMeC]-OEt; thioether N-9)
23 | 0.063 | CCOC(=O)[C@@H]1CSCC(=O)N[C@H](CC)C(=O)N(C)[C@@H](C)C(=O)N[C@H](CC(C)C)C(=O)N2CCC[C@H]2C(=O)N(CC(C)C)CC(=O)N[C@@H](CC(C)C)C(=O)N(C)[C@H](C)C(=O)N[C@@H](CC(C)C)C(=O)N1C [JF206_ALD_DDLD_Isobutyl] ({CH2CO}-[dAbu][NMeA][dL]P[Nleu]L[dNMeA]L[NMeC]-OEt; thioether N-9)
24 | 0.00548 | CCOC(=O)[C@@H]1CSCC(=O)N[C@H](CC)C(=O)N(C)[C@@H](C)C(=O)N[C@H](CC(C)C)C(=O)N2CCC[C@H]2C(=O)N(CC)CC(=O)N[C@@H](CC(C)C)C(=O)N(C)[C@@H](C)C(=O)N[C@@H](CC(C)C)C(=O)N1C [JF206_ALD_DDLL_Ethyl] ({CH2CO}-[dAbu][NMeA][dL]P[NEtG]L[NMeA]L[NMeC]-OEt; thioether N-9)
